As usually defined, the inhibition is the drop in the measured response relative to a control, in per cent. The term IC50 denotes the concentration that inhibits the measured activity by half. Low readings indicate greater potency in that assay, high ones weaker potency in that assay.

The target in assay [1] is T1, human SGLT1 (Homo sapiens, UniProt P13866).
T1 construct: expressed in transfected cells
T1 sequence (P13866 1-664): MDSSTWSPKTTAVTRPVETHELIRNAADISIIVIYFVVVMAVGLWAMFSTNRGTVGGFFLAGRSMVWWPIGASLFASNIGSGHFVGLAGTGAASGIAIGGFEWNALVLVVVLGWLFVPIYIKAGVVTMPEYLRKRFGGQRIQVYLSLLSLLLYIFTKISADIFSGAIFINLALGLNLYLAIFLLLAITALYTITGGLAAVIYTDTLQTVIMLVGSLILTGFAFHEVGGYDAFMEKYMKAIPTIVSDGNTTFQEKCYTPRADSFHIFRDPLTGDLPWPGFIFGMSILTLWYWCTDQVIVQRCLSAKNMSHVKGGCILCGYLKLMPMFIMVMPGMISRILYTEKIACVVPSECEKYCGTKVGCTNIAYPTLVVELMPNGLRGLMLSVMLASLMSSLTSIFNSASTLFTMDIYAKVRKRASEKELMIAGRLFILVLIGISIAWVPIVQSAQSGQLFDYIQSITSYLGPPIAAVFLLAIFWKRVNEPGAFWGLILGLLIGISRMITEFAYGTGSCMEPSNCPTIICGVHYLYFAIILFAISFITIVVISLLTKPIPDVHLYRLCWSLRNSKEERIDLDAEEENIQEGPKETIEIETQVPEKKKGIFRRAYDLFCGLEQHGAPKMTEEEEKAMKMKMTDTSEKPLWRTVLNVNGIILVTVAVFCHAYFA
Briefly: SGLT1 assay: Na-dependent 14C-AMG uptake in CHO-K1 cells stably expressing human SGLT1. It is filed as cell-based. Particulars: for IC50: average if tested more than once; for inhibition at 0.3 µM / SGLT1 %-inhibition: @ 0.3 μM. Summed up:
(§1)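 Stable CHO-K1 lines were pretreated 24 h with 10 mM Na-butyrate, then compound (0.001–10 μM) for 10 min in Na+ buffer (137 mM NaCl, pH 7.4). Uptake of 14C-AMG (500 μM final, 0.07 μCi/well) over 2 h at 37° C measured by scintillation; %-inhibition or IC50.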

Assay [2] deals with T2, human SGLT2 (Homo sapiens, UniProt P31639).
T2 construct: expressed in transfected cells
T2 sequence (P31639 1-672): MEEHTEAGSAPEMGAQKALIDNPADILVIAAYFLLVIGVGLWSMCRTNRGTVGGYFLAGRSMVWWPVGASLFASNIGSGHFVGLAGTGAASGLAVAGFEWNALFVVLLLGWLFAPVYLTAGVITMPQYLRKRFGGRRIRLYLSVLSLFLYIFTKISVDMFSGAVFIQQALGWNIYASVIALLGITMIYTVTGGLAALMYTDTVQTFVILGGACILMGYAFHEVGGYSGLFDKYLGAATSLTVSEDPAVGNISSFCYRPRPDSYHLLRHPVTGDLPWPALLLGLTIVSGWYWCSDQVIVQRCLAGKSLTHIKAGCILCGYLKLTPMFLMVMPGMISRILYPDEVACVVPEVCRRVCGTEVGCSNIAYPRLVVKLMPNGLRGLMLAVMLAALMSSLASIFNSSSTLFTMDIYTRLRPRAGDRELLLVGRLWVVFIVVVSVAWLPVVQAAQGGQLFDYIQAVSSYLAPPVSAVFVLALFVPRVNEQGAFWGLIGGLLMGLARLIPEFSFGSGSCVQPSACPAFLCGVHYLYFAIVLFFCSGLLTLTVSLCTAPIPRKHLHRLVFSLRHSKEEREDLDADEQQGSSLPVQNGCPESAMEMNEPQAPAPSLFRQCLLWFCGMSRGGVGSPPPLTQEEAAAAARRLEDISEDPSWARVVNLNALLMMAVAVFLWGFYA
Kind of assay: SGLT2 assay: Na-dependent 14C-AMG uptake in CHO-K1 cells stably expressing human SGLT2. In kind it is cell-based. Particulars: for IC50: average if tested more than once; for inhibition at 0.3 µM / SGLT2 %-inhibition: @ 0.3 μM. The gist of the method:
as §1

Take `CCOc1c(Cc2ccc3c(c2)OCCO3)cc([C@@H]2O[C@H](CO)[C@@H](F)[C@H](O)[C@H]2O)c2c1CCO2` [Compound 102, (2S,3R,4R,5S,6R)-2-[5-(2,3-dihydro-1,4-benzodioxin-6-ylmethyl)-4-ethoxy-2,3-dihydrobenzofuran-7-yl]-5-fluoro-6-(hydroxymethyl)tetrahydropyran-3,4-diol]: the inhibition at 0.3 µM in assay [1] was found to be 27.6%; in assay [2], 40.7%.
In the case of `Cc1cc(O)c([C@@H]2O[C@H](CO)[C@@H](F)[C@H](O)[C@H]2O)cc1Cc1cc2c(s1)CCN(C#N)C2` [Compound 103, 2-(5-((2S,3R,4R,5S,6R)-5-fluoro-3,4-dihydroxy-6-(hydroxymethyl)-tetrahydro-2H-pyran-2-yl)-4-hydroxy-2-methylbenzyl)-6,7-dihydrothieno[3,2-c]pyridine-5(4H)-carbonitrile], the IC50 stood at 86 nM in assay [1] and 3 nM in assay [2].
For the molecule `COc1cc(OC)c([C@@H]2O[C@H](CO)[C@@H](F)[C@H](O)[C@H]2O)cc1Cc1cc2c(s1)CCN(C#N)C2` [Compound 104], in assay [1], the SGLT1 %-inhibition came to 32.5% @ 0.3 μM. In assay [2], this molecule had an SGLT2 %-inhibition of 81.2% @ 0.3 μM.
With `COc1c([C@@H]2O[C@H](CO)[C@@H](F)[C@H](O)[C@H]2O)cc(Cc2ccc3c(c2)NCCC3)c2c1CCO2` [Compound 105, (2S,3R,4R,5S,6R)-5-fluoro-6-(hydroxymethyl)-2-(4-methoxy-7-((1,2,3,4-tetrahydroquinolin-7-yl)methyl)-2,3-dihydrobenzofuran-5-yl)-tetrahydro-2H-pyran-3,4-diol], the IC50 turned out to be 128 nM in assay [1] and 4 nM in assay [2].
With `COc1cc(Cl)c(Cc2cc3c(s2)CCN(C(=O)c2nccs2)C3)cc1[C@@H]1O[C@H](CO)[C@@H](F)[C@H](O)[C@H]1O` [Compound 106], the SGLT1 %-inhibition in assay [1] is 29.4% @ 0.3 μM. In addition, the SGLT2 %-inhibition in assay [2] is reported as 82.1% @ 0.3 μM.
In the case of `COc1c([C@@H]2O[C@H](CO)[C@@H](F)[C@H](O)[C@H]2O)cc(Cc2ccc3c(c2)SCCO3)c2c1CCO2` [Compound 107, (2S,3R,4R,5S,6R)-2-(7-((2,3-dihydrobenzo[b][1,4]oxathiin-6-yl)methyl)-4-methoxy-2,3-dihydrobenzofuran-5-yl)-5-fluoro-6-(hydroxymethyl)-tetrahydro-2H-pyran-3,4-diol], the IC50 in assay [1] is 163 nM; in assay [2], 8 nM.
For `COc1c([C@@H]2O[C@H](CO)[C@@H](F)[C@H](O)[C@H]2O)cc(Cc2ccc3c(c2)N(C)CCC3)c2c1CCO2` [Compound 108, (2S,3R,4R,5S,6R)-5-fluoro-6-(hydroxymethyl)-2-(4-methoxy-7-((1-methyl-1,2,3,4-tetrahydroquinolin-7-yl)methyl)-2,3-dihydrobenzofuran-5-yl)-tetrahydro-2H-pyran-3,4-diol], in that order: 326 nM and 75 nM.
Consider `Cc1ccc([C@@H]2O[C@H](CO)[C@@H](F)[C@H](O)[C@H]2O)cc1Cc1cc2c(s1)CCN(C(=O)c1nccs1)C2` [Compound 109, (2-(5-((2S,3R,4R,5S,6R)-5-fluoro-3,4-dihydroxy-6-(hydroxymethyl)-tetrahydro-2H-pyran-2-yl)-2-methylbenzyl)-6,7-dihydrothieno[3,2-c]pyridin-5(4H)-yl)(thiazol-2-yl)methanone], for which the figures for the inhibition at 0.3 µM in assay [1] and in assay [2] were 39.5% and 72.7%, respectively.
Take `COc1cc(C)c(Cc2cc3c(s2)CCN(C#N)C3)cc1[C@@H]1O[C@H](CO)[C@@H](F)[C@H](O)[C@H]1O` [Compound 110, 2-(5-((2S,3R,4R,5S,6R)-5-fluoro-3,4-dihydroxy-6-(hydroxymethyl)-tetrahydro-2H-pyran-2-yl)-4-methoxy-2-methylbenzyl)-6,7-dihydrothieno[3,2-c]pyridine-5(4H)-carbonitrile]: the results for the IC50 in assay [1] and in assay [2] were 1420 nM and 5 nM, respectively.
For `Cc1cnc(N2CCc3sc(Cc4cc([C@@H]5O[C@H](CO)[C@@H](F)[C@H](O)[C@H]5O)c(O)cc4C)cc3C2)s1` [Compound 111] the same measures were 101 nM and 19 nM.

These data come from patent US11014917B2, “5-fluoro-c-(aryl or heterocyclyl)-glycoside derivatives useful as dual SGLT1 / SGLT2 modulators” (Janssen Pharmaceutica NV, priority 2017, dated 2021).
